# Assay results published in US20210260051A1, “COMBINATION OF EZH2 INHIBITOR AND CHECKPOINT THERAPY FOR THE TREATMENT OF CANCER” (Board of Regents, The University of Texas System, priority 2018, published 2021).
# What was measured:
# [1] = tested on: Nalm-6 target tumor cells; assay: T cell cytotoxicity assay; type: cell-based, human; conditions: in vitro
# Method: T cell cytotoxicity assay was carried out using activated effector T cells (isolated with EasySep Human Naïve CD4^+ T Cell Isolation Kit and EasySep Human CD8^+ T Cell Enrichment Kit; STEMCELL Technologies). Purified naïve CD4 and total CD8 T cells were pre-activated with plate-bound anti-CD3/soluble anti-CD28 for 6 days in the presence or absence of CPI-1205. Activated T cells were then washed and challenged with Nalm-6 target tumor cells, then labeled with CellTrace violet to enable their subsequent discrimination from effector cells. The T cell:tumor cell co-cultures were conducted at different effector:target (E:T) ratios, in the presence of the blinatumomab antibody (10 ng/ml) and CPI-1205 for 20 hours as previously described (3). Target cell death was determined by summing the percentage of apoptotic (Annexin V^+) and dead or dying (7AAD+) target (CellTrace violet^+) cells after overnight culture.
# [2] = tested on: MB49 (bladder) tumor; assay: MB49 tumor-bearing C57BL/6 mice; type: in vivo
# Description: FIGS. 3A-3F: Blocking expression of EZH2 mediated by anti-CTLA-4 using CPI-1205 increases the effectiveness of anti-CTLA-4 therapy. Tumor growth (FIG. 3A), survival (FIG. 3B) and percentages of intra-tumoral CD4^+CD25^+FoxP3^+ regulatory T cells, CD4^+ICOS^+T-bet^+ and CD8^+IFNγ^+ cells (FIG. 3C) in MB49 tumor-bearing mice treated with vehicle, anti CTLA-4, CPI-1205, or the combination. Tumor growth (FIG. 3D) and percentages of CD4^+IFNγ^+ cells and CD8^+TNFα^+ cells in the lymph nodes (LN) (FIG. 3E) of MB49 tumor-bearing Ezh2^fl/+ and FoxP3^CreEzh2^fl/fl mice treated with anti-CTLA-4 on days 7 and 9. (FIG. 3F) Tumor growth and survival of MB49 tumor-bearing Rag-1^−/− mice treated with vehicle or CPI-1205. Data are representative of three independent experiments (n=10 in each group; one-way ANOVA was used to determine significance between the groups. **p<0.01).
# It was evaluated whether the combination of anti-CTLA-4 with CPI-1205 increases the effectiveness of anti-CTLA-4. MB49 (bladder) and B 16-F10 (melanoma) tumor-bearing C57BL/6 mice were treated with anti-CTLA-4 and the EZH2 inhibitor CPI-1205 as monotherapies and in combination.
# Cell lines and tumor model. Murine bladder cancer cell line (MB49) were provided by Dr. A. Kamat (at The University of Texas MD Anderson Cancer Center) and murine melanoma cell line B16-F10 was obtained from Dr. I. Fidler (The University of Texas MD Anderson Cancer Center). 2×10^5 (MB49) or 2×10^5 (B16-F10) cells were injected subcutaneously or intradermally respectively, in the flanks of C57BL/6 mice (5 or 10 mice per group). […]
# Tissue processing and flow cytometry. […] Staining with intracellular anti-Foxp3 (eBioscience, FJK-16 s), […] (eBioscience, PC61.5), antiKi-67 (eBioscience, SolA15), antiIFN-γ (BioLegend, XMG1.2), anti-TNF-α (BioLegend, MP6-XT22), and anti-EZH2 (Cell Signaling Technology, D2C9) were analyzed by flow cytometry according to the manufacturers’ instructions. Flow cytometry data were acquired on BD LSR II (BD Biosciences) and analyzed using FlowJo software (Tree Star, Ashland, Oreg.).
structure (smiles),measurement,setting,value
"COc1cc(C)[nH]c(=O)c1CNC(=O)c1c(C)n([C@H](C)C2CCN(CC(F)(F)F)CC2)c2ccccc12 [CPI-1205, N-[(4-methoxy-6-methyl-2-oxo-1H-pyridin-3-yl)methyl]-2-methyl-1-[(1R)-1-[1-(2,2,2-trifluoroethyl)piperidin-4-yl]ethyl]indole-3-carboxamide]",cytotoxicity of human effector T cells,[1],enhanced
same,proportion of tumor-infiltrating cytotoxic T cells,[2]; in vivo in the murine model (model not named),enhanced
same,B cell abundance,[2]; model not named,no difference
same,myeloid cells,[2]; model not named,effected certain subsets
